Assay results as given in article PMC12395807, “Chemoreceptor family in plant-associated bacteria responds preferentially to the plant signal molecule glycerol 3-phosphate” (Genome Biology, 2025).
Read-outs that look alike come from different tables or passages of the source. Values belong to the compound of their own block, whether it stands above or below them.

What was measured:
[1] = biological target: ligand binding domain of the chemoreceptor ECA_RS12390 (PacP-LBD, R1, WP_011094075.1) (Pectobacterium atrosepticum, UniProt Q6D464); experiment: ITC binding to PacP-LBD; conditions: 15 °C, Nb = no binding
Procedure: (§1) Plasmids for the overexpression of the different proteins were transformed into E. coli BL21(DE3). The resulting strains were grown under continuous stirring (200 rpm) at 30 °C in 2-L Erlenmeyer flasks containing 500 mL of LB medium supplemented with 50 μg/mL kanamycin. At an OD660 of 0.5, protein expression was induced by the addition of 0.1 mM isopropyl β-D-1-thiogalactopyranoside. Growth was continued at 16 °C overnight prior to cell harvesting by centrifugation at 10,000 × g for 20 min. Cell pellets were resuspended in buffer A (Additional file 2: Table S4) and subsequently broken by French press treatment at 62.5 lb/in^2. After centrifugation at 20,000 × g for 30 min, the supernatants were loaded onto 5-mL HisTrap HP columns (Amersham Biosciences) equilibrated with buffer A, and the proteins were eluted with a linear gradient of buffer B (Additional file 2: Table S4). All proteins contain a hexa-histidine tag at the N-terminal extension (Additional file 2: Table S3) and were purified at 4 °C. The purified proteins were dialyzed overnight into the corresponding analysis buffers (Additional file 2: Table S4) for immediate analysis.
(§2) All experiments were conducted on a VP microcalorimeter (Microcal, MA) at 15 °C for PacP-LBD and at 20 °C for the remaining proteins. Proteins were dialyzed into the analysis buffers specified in Additional file 2: Table S4, placed into the sample cell and titrated with aliquots of ligand solutions (1 to 10 mM) freshly prepared in dialysis buffer. The mean enthalpies measured from the injection of the ligands into the analysis buffer were subtracted from the raw titration data prior to data analysis with the MicroCal version of ORIGIN. The data were fitted with the “One binding site model” of ORIGIN.

[2] = test system: ECA_RS12390-LBD (PacP-LBD); experiment: Thermal shift ligand screening of PacP-LBD; assay type: binding, Pectobacterium atrosepticum; conditions: thermal shift assay, Biolog arrays PM1, PM2A, PM3B, PM4A
Procedure: Assays were carried out on a MyIQ2 Real-Time PCR instrument (Bio-Rad, Hercules, CA, USA). Ligand solutions were prepared by dissolving the array compounds in 50 µL of Milli-Q water, which, according to the manufacturer, corresponds to a concentration of 10–20 mM. Freshly purified proteins were dialyzed into analysis buffer (Additional file 2: Table S4). Compound arrays PM1, PM2A (carbon sources), PM3B (nitrogen sources), and PM4A (phosphorus and sulfur sources) from Biolog (https://www.biolog.com/) were used. The compositions of these arrays are provided in Additional file 2: Table S1. The experiments were conducted in 96-well plates, and each assay mixture contained 20 µL of the dialyzed protein (at 80–50 µM), 2 µL of 5 × SYPRO orange (Life Technologies, Eugene, Oregon, USA), and 2.5 µL of the resuspended array compound or the equivalent amount of buffer in the ligand-free control. The samples were heated from 23 to 85 °C at a scan rate of 1 °C/min. The protein unfolding curves were monitored by detecting changes in SYPRO® Orange fluorescence. The Tm values were determined from the first derivative values of the raw fluorescence data.

[3] = biological target: LBD of chemoreceptor R2 (WP_136157342.1) (Brenneria roseae, UniProt A0A2U1TV64, H128N/K136R); assay type: binding
Procedure: as §1, §2

[4] = biological target: LBD of chemoreceptor R5 (WP_028444678.1); experiment: ITC binding to R5-LBD; design: species or system Chitinimonas koreensis; conditions: 20 °C, Nb = no binding
Procedure: as §1, §2

[5] = biological target: LBD of chemoreceptor R6 (WP_174062248.1); experiment: ITC binding to R6-LBD; design: species or system Agrobacterium larrymoorei; conditions: 20 °C, Nb = no binding
Procedure: as §1, §2

[6] = biological target: LBD of chemoreceptor R9 (WP_189529961.1) (Paludibacterium paludis, UniProt A0A918NWY2); experiment: ITC binding to R9-LBD; conditions: 20 °C, Nb = no binding
Procedure: as §1, §2

[7] = biological target: LBD of chemoreceptor R10 (WP_028866120.1); experiment: ITC binding to R10-LBD; design: species or system Psychromonas aquimarina; conditions: 20 °C, Nb = no binding
Procedure: as §1, §2

[8] = biological target: LBD of chemoreceptor R3 (WP_006464688.1) (Herbaspirillum frisingense, UniProt A0ABU1PC34); experiment: ITC binding to R3-LBD; conditions: 20 °C, Nb = no binding
Procedure: as §1, §2

[9] = biological target: LBD of chemoreceptor R4 (WP_158281851.1) (Rivihabitans pingtungensis, UniProt A0A318KJN4); experiment: ITC binding to R4-LBD; design: species or system Rivicola pingtungensis; conditions: 20 °C, Nb = no binding
Procedure: as §1, §2

ITC binding to R7-LBD = experiment: ITC binding to R7-LBD; design: species or system Methyloversatilis discipulorum; conditions: 20 °C, Nb = no binding
Procedure: as §1, §2

P. atrosepticum SCRI1043 = experiment: Quantitative capillary chemotaxis assay, wild type; assay type: cell-based, Pectobacterium atrosepticum; conditions: wild type SCRI1043, 1 mM ligand, 30 min
Procedure: (§3) Overnight cultures of P. atrosepticum SCRI1043 were grown at 30 °C in minimal medium. At an OD660 of 0.4–0.45, the cultures were washed twice with chemotaxis buffer (50 mM K2HPO4/KH2PO4, 20 μM EDTA, 0.05% (v/v) glycerol, pH 7.0) and diluted to an OD660 of 0.1 in the same buffer. Subsequently, 230 μL of the resulting bacterial suspension was placed into the wells of 96-well plates. One-microliter capillary tubes (P1424, Microcaps; Drummond Scientific) were heat-sealed at one end and filled with either chemotaxis buffer (negative control) or chemotaxis buffer containing PacP ligands at a concentration of 1 mM. The capillaries were immersed in the bacterial suspensions at their open ends. After 30 min at room temperature, the capillaries were removed from the bacterial suspensions, rinsed with sterile water, and the contents were expelled into 1 mL of 40 mM K2HPO4, 15 mM KH2PO4. Serial dilutions were plated onto minimal medium supplemented with 15 mM glucose as the carbon source. The number of colony-forming units was determined after 36 h of incubation at 30 °C. In all the cases, the data were corrected with the number of cells that swam into the buffer-containing capillaries.

[10] = test system: P. atrosepticum SCRI1043 pacP mutant (MpacP); experiment: Quantitative capillary chemotaxis assay, pacP mutant; assay type: cell-based, Pectobacterium atrosepticum; conditions: 1 mM ligand
Source text: A mutant defective in ECA_RS12390 was constructed by homologous recombination using a derivative plasmid of the suicide vector pKNG101. Briefly, a 0.5-kb fragment corresponding to the region encoding the LBD of ECA_RS12390 was amplified by the primers specified in Additional file 2: Table S2 and cloned into pGEM®-T. The resulting plasmid pGEM::ECA_RS12390 was digested with XmaI, and the 0.5-kb insert was cloned into the same site at pKNG101 to generate pKNG101::ECA_RS12390. This plasmid was subsequently transformed into P. atrosepticum SRCI1043 via biparental conjugation using E. coli β2163. All the plasmids were verified by PCR and sequencing. The pETb(+) derivatives encoding the LBD of the different receptors analyzed in this study (Table 1) were purchased from GeneScript. Plasmid pBBR-ECA_RS12390 was constructed by amplifying the pacP gene using the primers detailed in Additional file 2: Table S2 and cloning of the PCR product into the NdeI/BamHI sites of pBBR1MCS2_START. The sequences of the proteins analyzed in this study are provided in Additional file 2: Table S3. The ECA_RS12390 nucleotide sequence is available in the published genome of P. atrosepticum SCRI1043 [60].
as §3

[11] = test system: Pectobacterium atrosepticum SCRI1043; experiment: Growth experiment, sole phosphorus source; assay type: cell-based; conditions: PFM9 minimal medium, 5 mM ligand, 30 °C, 48 h
Procedure: (§4) P. atrosepticum SCRI1043 was cultured overnight in phosphate-free M9-based medium (PFM9) supplemented with 20 mM glucose as the carbon source and 500 µM inorganic phosphate as the phosphate source. Cultures were washed and then diluted to an OD600 of 0.02 in PFM9 supplemented with different PacP ligands as the sole carbon or phosphorous source at a final concentration of 5 mM. Subsequently, 200 µL aliquots of these cultures were transferred into microwell plates, which were subsequently grown at 30 °C on a Bioscreen microbiological growth analyzer (Oy Growth Curves Ab Ltd., Helsinki, Finland) for 48 h.

[12] = test system: Bdellovibrio bacteriovorus; design: method as in PMID 119030, PMID 500565; conditions: cited from earlier work
Bacillus subtilis = test system: Bacillus subtilis; design: method as in PMID 119030, PMID 500565; conditions: cited from earlier work
[13] = biological target: LBD of chemoreceptor R7 (WP_019915375.1); experiment: ITC binding to R7-LBD; design: species or system Methyloversatilis discipulorum; conditions: 20 °C, Nb = no binding
Procedure: as §1, §2

[14] = test system: Pectobacterium atrosepticum SCRI1043; experiment: Growth experiment, sole carbon source; assay type: cell-based; conditions: PFM9 minimal medium, 5 mM ligand, 30 °C, 48 h
Procedure: as §4

[15] = ITC, 20 °C, R2 LBD, Nb = no binding

LBD of chemoreceptor R3 (WP_006464688.1), sequence (A0ABU1PC34 entry or part of it): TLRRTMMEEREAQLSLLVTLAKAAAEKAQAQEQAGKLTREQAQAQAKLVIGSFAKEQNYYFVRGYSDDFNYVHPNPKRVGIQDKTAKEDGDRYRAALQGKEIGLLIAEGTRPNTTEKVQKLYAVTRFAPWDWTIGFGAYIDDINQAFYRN
LBD of chemoreceptor R9 (WP_189529961.1), sequence (A0A918NWY2 entry or part of it): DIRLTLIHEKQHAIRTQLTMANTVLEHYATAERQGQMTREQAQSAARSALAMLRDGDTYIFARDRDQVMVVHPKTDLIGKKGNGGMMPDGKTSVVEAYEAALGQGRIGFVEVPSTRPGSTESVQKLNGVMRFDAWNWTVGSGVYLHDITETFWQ
LBD of chemoreceptor R2 (WP_136157342.1), sequence (A0A2U1TV64 28-178 H128N/K136R): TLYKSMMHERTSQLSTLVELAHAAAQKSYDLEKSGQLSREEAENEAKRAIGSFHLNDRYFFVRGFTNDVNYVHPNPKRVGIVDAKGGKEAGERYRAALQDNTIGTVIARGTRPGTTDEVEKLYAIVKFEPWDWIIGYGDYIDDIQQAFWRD
ligand binding domain of the chemoreceptor ECA_RS12390 (PacP-LBD, R1, WP_011094075.1), sequence (Q6D464 entry or part of it): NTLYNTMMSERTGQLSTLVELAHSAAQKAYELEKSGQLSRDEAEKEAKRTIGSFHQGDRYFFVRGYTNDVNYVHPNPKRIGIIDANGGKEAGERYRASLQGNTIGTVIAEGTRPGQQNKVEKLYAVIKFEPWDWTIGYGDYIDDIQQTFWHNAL
LBD of chemoreceptor R7 (WP_019915375.1), sequence (as listed by the source): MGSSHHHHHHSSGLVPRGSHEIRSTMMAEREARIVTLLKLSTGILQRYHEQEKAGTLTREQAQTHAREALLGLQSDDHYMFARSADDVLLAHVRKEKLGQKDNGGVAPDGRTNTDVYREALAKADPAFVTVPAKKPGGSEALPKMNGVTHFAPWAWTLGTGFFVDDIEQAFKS
LBD of chemoreceptor R4 (WP_158281851.1), sequence (A0A318KJN4 entry or part of it): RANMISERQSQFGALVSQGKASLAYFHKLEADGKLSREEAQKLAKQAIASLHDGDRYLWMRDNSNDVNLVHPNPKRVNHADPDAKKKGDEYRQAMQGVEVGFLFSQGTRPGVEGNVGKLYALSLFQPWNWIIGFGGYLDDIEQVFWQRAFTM

SMILES: NC(=O)OP(=O)(O)O [carbamoylphosphate]
KD [1]: did not result in measurable heat release
Tm change with respect to the ligand-free protein [2]: significant increases in Tm

SMILES: CCCCCC(=O)O [caproic acid]
KD [3, 15]: did not reveal binding

SMILES: O=C(O)/C=C/C(=O)O [Fumarate]
Kd [4]: 68 ± 6 µM
Kd [5]: 90 ± 4 µM
KD [6]: Nb
KD [7]: Nb

SMILES: CC(O)C(=O)O (stereo not shown) [lactate]
KD [1]: did not bind

SMILES: O=C(O)CO [Glycolate]
KD [4]: Nb
KD [5]: Nb
KD [6]: Nb
Kd [7]: 322 ± 114 µM

SMILES: CCC(=O)O [propionic acid]
KD [3, 15]: did not reveal binding

KD [1]: No binding
SMILES: O=C(O)[C@H](CO)OP(=O)(O)O [2-phosphoglycerate]

SMILES: CC(=O)O [acetic acid]
KD [3]: did not reveal binding

SMILES: CCCCCCC(N)C(=O)O (racemic) [D,L-aminocaprylic acid]
KD [3, 15]: did not reveal binding

SMILES: O=C(O)CCC(=O)O [Succinate]
Kd [4]: 127 ± 5 µM
Kd [5]: 90 ± 4 µM
KD [6]: Nb
Kd [7]: 362 ± 23 µM

SMILES: O=P(O)(O)OC(CO)CO [glycerol 2-phosphate]
Kd [1]: 72 ± 2 µM
KD [8]: bound
Kd [8]: 36 ± 2 µM
Kd [9]: 60 ± 2 µM
KD [4]: Nb
KD [5]: Nb
Kd (ITC binding to R7-LBD): 223 ± 45 µM
KD [6]: Nb
KD [7]: Nb
chemotaxis (capillary assay) (P. atrosepticum SCRI1043): Modest chemoattraction
chemotaxis (capillary assay) [10]: served as an attractant
growth as sole phosphorus source [11]: permitted growth
chemotaxis [12]: weak chemotaxis
chemotaxis (Bacillus subtilis): weak chemotaxis

SMILES: O=C(O)CC(O)(CC(=O)O)C(=O)O [Citrate]
Kd [4]: 10 ± 2 µM
KD [5]: Nb
KD [6]: Nb
KD [7]: Nb

SMILES: C[C@H](O)C(=O)O [L-lactate]
KD [4]: Nb
KD [5]: Nb
KD [6]: Nb
Kd [7]: 463 ± 51 µM

SMILES: O=C(O)CC(Br)C(=O)O (stereo not shown) [Bromosuccinate]
KD [4]: Nb
KD [5]: Nb
Kd [6]: 200 ± 13 µM
KD [7]: Nb

SMILES: N[C@@H](CS(=O)(=O)O)C(=O)O [L-cysteic acid]
KD [3, 15]: did not reveal binding

SMILES: O=CC(CO)OP(=O)(O)O (stereo not shown) [glyceraldehyde 2-phosphate]
KD [13]: bound

SMILES: CC(=O)CC(=O)O [acetoacetic acid]
KD [3, 15]: did not reveal binding

SMILES: CC(CC(=O)O)C(=O)O (stereo not shown) [Methylsuccinate]
KD [4]: Nb
KD [5]: Nb
Kd [6]: 254 ± 53 µM
KD [7]: Nb

SMILES: O=C(CO)COP(=O)(O)O [dihydroxyacetone phosphate]
Kd [1]: 13 ± 1 µM
KD [8]: bound
Kd [8]: 109 ± 14 µM
Kd [9]: 230 ± 10 µM
KD [4]: Nb
KD [5]: Nb
KD [13]: Nb
KD [6]: Nb
KD [7]: Nb
chemotaxis (capillary assay) (P. atrosepticum SCRI1043): Modest chemoattraction
chemotaxis (capillary assay) [10]: Only glycerol 2-phosphate served as an attractant for the mutant
growth as sole carbon source [14]: devoid of apparent metabolic value
growth as sole phosphorus source [11]: devoid of apparent metabolic value

SMILES: O=C(O)CC(O)C(=O)O (stereo not shown) [Malate]
Kd [4]: 61 ± 2 µM
Kd [5]: 63 ± 1 µM
Kd [6]: 185 ± 5 µM
KD [7]: Nb

SMILES: O=C(O)CC(CC(=O)O)C(=O)O [Tricarballylate]
Kd [4]: 15 ± 1 µM
KD [5]: Nb
Kd [6]: 138 ± 33 µM
KD [7]: Nb

SMILES: O=CO [formic acid]
KD [3]: did not reveal binding

KD [1]: did not bind
SMILES: CC(=O)C(=O)O [Pyruvate]
